Measurements reported in patent US20260021138A1, “EXTRACELLULAR VESICLES AND PARTICLES FROM IMMUNE CELLS FOR PROVIDING ANTICANCER ACTIVITY” (LIETUVOS SVEIKATOS MOKSLU UNIVERSITETAS, priority 2022, published 2026).

What was measured:
HROG-36 GBM 3D spheroids = experiment: GBM cell migration area in 3D cell cultures; type: cell-based, human; details: at higher concentrations
Description: For EV internalisation assessment in 2D GBM cell cultures, AF555-labelled EV solutions in PBS were applied to mixed glial and microglial cultures making a final concentration of 50 μg/mL of total EV protein. The cells were visualised by a fluorescent microscope Zeiss Axio Observer.Z1 (Carl Zeiss, Jena, Germany). For 3D GBM cell cultures, U-bottom 96-well plates were coated with a thin layer of 2% agarose prior to cell seeding. The cells were seeded at a density of 10000 per well, and the plate was centrifuged at 280×g for 7 min. […] The spheroid diameter was monitored under a light microscope on each day of culture (FIG. 17). […]
For EV efficiency on GBM cell migration in 3D GBM cell cultures, microscopic images of the cultures were taken at the start and at the end (72 hours), and the area covered by cells was calculated. […] Using the ImageJ software package, the area occupied by migrating spheroid cells was assessed, and the area of the spheroid at the initial time point was subtracted, as indicated in FIG. 24C. Representative images before and after treatment with U-937-derived macrophage and HMC-3 microglial EVs with and without DOX or TMZ and the same amount of free DOX are presented in FIG. 20-23, and quantitative assessment results—in FIG. 24.

[1] = test system: U-937-derived macrophage cell cultures; experiment: Total cell number after poly(I:C) treatment, macrophages; type: cell-based, human; details: 24 hours after the poly(I:C) treatment; data not shown
Description: CELL CULTURES FOR EV PRODUCTION. Human monocytes U-937 (ATCC, CRL1593.2) were maintained in RPMI-1640 medium with GlutaMAX (Thermo Fisher Scientific) supplemented with 10% exosome-free FBS (Thermo Fisher Scientific) and 1000 IU/mL penicillin-streptomycin (Gibco, Thermo Fisher Scientific). U-937 were grown in T150 (30 mL medium) tissue culture flasks at 37° C. (incubator New Brunswick Galaxy 170S, Eppendorf) until the settled cells covered 65-75% of the vial bottom. For induction of cell differentiation, the cell medium was changed to Macrophage-SFM medium (Thermo Fisher Scientific) with 200 nM phorbol myristate acetate (PMA, Merck) and the cells were left for 24 hours in a Soft Flask. After this, the medium was replaced with Macrophage-SFM without PMA and kept in the incubator for 48 hours.
For TLR-3 pathway stimulation, U-937-derived macrophages and HMC-3 cells were treated with 10 μg/mL poly(I:C) for 1 hour (FIG. 1A, C). For induction of large EV shedding, the stimulation time was increased to 8 hours (FIG. 1B, D). After the treatments, the large EVs were collected by a series of centrifugation. First, the media were centrifuged for 10 min at 800×g to remove cells and large cell debri. Then, the supernatant was centrifuged at 14000×g for 30 minutes to spin down large EVs. The EV pellets were resuspended in PBS by pipetting up and down several times. […]

[2] = test system: human microglial cultures (HMC-3); experiment: Total cell number after poly(I:C) treatment, microglia; type: cell-based; details: 24 hours after the poly(I:C) treatment; data not shown

Compound | GBM migration suppression, free drug versus loaded EVs (HROG-36 GBM 3D spheroids) | Total cell numbers decreased by [1] | cell numbers significantly increased by [2]
COc1cccc2c1C(=O)c1c(O)c3c(c(O)c1C2=O)C[C@@](O)(C(=O)CO)C[C@@H]3O[C@H]1C[C@H](N)[C@H](O)[C@H](C)O1 [DOX, doxorubicin] | more efficient | – | –
poly(I:C) | – | 15±2% | 22±7%
